According to PMC7481406, “Bifunctional supramolecular nanofiber inhibits atherosclerosis by enhancing plaque stability and anti-inflammation in apoE^-/- mice” (Theranostics, 2020):
Where a SMILES comes first, the peptide text is derived from it. [ ]: non-standard residue; d: D form. The star is where a group is joined. Naproxen = COc1ccc2cc([C@H](C)C(=O)*)ccc2c1; Acetyl(2-naphthyl) = O=C(Cc1ccc2ccccc2c1)*

Key:
[1] = Body weight and serum lipid profile; assay type: in vivo, mouse; conditions: for HDL-C / LDL-C / TG (triglyceride) / Total-C (serum total cholesterol): serum
Source text: (§1) All animal studies were approved by the Animal Ethics Committee of Nankai University and followed the Tianjin Committee of Use and Care of Laboratory Animals. Male apoE^‑/‑ mice (~22 g bodyweight, ~8 weeks old) were purchased from the Beijing Vital River Laboratory Animal Technology Co., Ltd, which were used to set up the atherosclerotic model, as previously described. ApoE^-/- mice were randomly assigned into six groups (15 per group) and fed with HFD (21% fat plus 0.5% cholesterol; Mediscience, Ltd, Jiangsu, China; Cat No. MD12015A) for 16 weeks. […] At the end of the experiment, all mice were euthanatized by an overdose of 2,2,2-tribromoethanol (640 mg/kg, IP injection), followed by collection of aortas, blood, and peritoneal macrophages. Serum was prepared to determine levels of TNF-α, IL-1β and IL-6 by ELISA kits purchased from ABclonal, Inc. (Wuhan, China). The en face aortas were used to prepare aortic root cross sections followed by determination of en face and sinus lesions with Oil Red O staining. All the images were obtained with a microscope and quantified lesion areas in en face aorta by a computer-assisted image analysis protocol (Photoshop CS6). Necrotic core area, fibrous cap area, expression of MOMA-2, CD68, and α-SMA protein in lesion were determined by H&E and immunofluorescent staining with aortic root cross sections.

[2] = target: recombinant human Insulin-like Growth Factor-I Receptor (rhIGF-1R) (Homo sapiens, UniProt P08069); assay: Microscale thermophoresis binding to rhIGF-1R; conditions: for dissociated constant (KD) with rhIGF-1R: microscale thermophoresis, NT-647 labelled rhIGF-1R, PBS with 0.05% Tween 20 pH 7.4, compound 0.054 nM to 2 μM
Source text: (§2) The transparency of the prepared hydrogel in the visible light range of 380 nm-780 nm is detected by UV-Vis spectroscopy (Lambda 35 UV/Vis Spectrometer, Perkin-Elmer). […] Therefore, we conducted microscale thermophoresis experiments to determine their binding affinity to recombinant human Insulin-like Growth Factor-I Receptor (rhIGF-1R).
rhIGF-1R was labeled with the fluorescent dye NT-647 using a Monolith NT™ Protein Labelling Kit (cysteine-reactive) (NanoTemper Technologies, Germany). PBS buffer containing 0.05% Tween 20 (pH 7.4) was used as the assay buffer. For the interaction experiments of fluorescent proteins with Compound 1, 2, 3or 4, the concentration of labeled proteins were kept constant, while the concentration of Compound 1, 2, 3or 4 varied from 0.054 nM to 2 μM. Then, the solution of fluorescent proteins was mixed with solutions containing different concentrations of Compound 1, 2, 3or 4 at 1:1 volume ratio. After a short incubation time, the samples were loaded into MST NT.115 standard glass capillaries and the analysis was performed using the Monolith NT.115 system (NanoTemper Technologies, Germany). The KD value was calculated using the NanoTemper software package.

peritoneal macrophages = assay: Macrophage polarization and LPS-induced inflammation in vitro; assay type: cell-based, mouse
Method: (§3) Human aortic smooth muscle cells (HASMCs) were cultured in a completed DMEM F12 medium (10% fetal bovine serum, 50 μg/mL penicillin, and 50 μg/mL streptomycin). Peritoneal macrophages were cultured in complete RPMI1640 medium (10% fetal bovine serum, 50 μg/mL penicillin, 50 μg/mL streptomycin and 2 mM glutamine). HASMCs or peritoneal macrophages were seeded on a 6-well plate at the density of 3×10^5 cells per well before treatment. […] After treatment, total cellular proteins were extracted from peritoneal macrophages for determination of ABCA1 and ABCG1 by western blot, as previously described. Expression of CD68, SM22α, iNOS, CD206, TNF-α, IL-6, and IL-1β mRNA in HASMCs or macrophages was determined by quantitative real-time polymerase chain reaction (qRT-PCR) with total RNA extracted from cells and the primers listed in Table 1 and normalized to GAPDH mRNA levels in the corresponding samples.

[3] = system: atherosclerotic lesions in apoE-/- mice; assay: Atherosclerotic lesion formation, Oil Red O staining; assay type: in vivo, mouse; conditions: high-fat diet 16 weeks, s.c. 100 μL of 1 μM weekly, n=15
Method: Male apoE^‑/‑ mice (~22 g bodyweight, ~8 weeks old) were purchased from the Beijing Vital River Laboratory Animal Technology Co., Ltd, which were used to set up the atherosclerotic model, as previously described[66]. ApoE^-/- mice were randomly assigned into six groups (15 per group) and fed with HFD (21% fat plus 0.5% cholesterol; Mediscience, Ltd, Jiangsu, China; Cat No. MD12015A) for 16 weeks. ApoE^-/- mice in the different groups were subcutaneously injected with either saline (100 µL, n=15), IGF-1 protein (1 μM, 100 μL, n=15), H1 (1 μM, 100 μL, n=15), H2 (1 μM, 100 μL, n=15), H3 (1 μM, 100 μL, n=15) or H4 (1 μM, 100 μL, n=15) weekly. At the end of the experiment, all mice were euthanatized by an overdose of 2,2,2-tribromoethanol (640 mg/kg, IP injection), followed by collection of aortas, blood, and peritoneal macrophages. […] The en face aortas were used to prepare aortic root cross sections followed by determination of en face and sinus lesions with Oil Red O staining. All the images were obtained with a microscope and quantified lesion areas in en face aorta by a computer-assisted image analysis protocol (Photoshop CS6).

[4] = system: peritoneal macrophages from apoE-/- mice; assay: Foam cell formation, Oil Red O staining after ox-LDL; assay type: cell-based, mouse; conditions: same molar concentration, after exposure to ox-LDL, >10 lipid droplets per cell, n=5
Method: Human aortic smooth muscle cells (HASMCs) were cultured in a completed DMEM F12 medium (10% fetal bovine serum, 50 μg/mL penicillin, and 50 μg/mL streptomycin). Peritoneal macrophages were cultured in complete RPMI1640 medium (10% fetal bovine serum, 50 μg/mL penicillin, 50 μg/mL streptomycin and 2 mM glutamine). HASMCs or peritoneal macrophages were seeded on a 6-well plate at the density of 3×10^5 cells per well before treatment. […] To assess foam cell formation in vitro, peritoneal macrophages collected from apoE^-/- mice were plated on cover slips in 12-well plates. Subsequently, induction and determination of foam cells was conducted as previously described.

HASMCs = assay: VSMC switch to macrophage-like phenotype (αSMA immunofluorescence, CD68 and SM22α qRT-PCR); assay type: cell-based, human; conditions: n=5
Method: as §3

peritoneal macrophage = assay: Cholesterol efflux of peritoneal macrophage; assay type: cell-based, mouse; conditions: n=5, Figures S14 and S15B
Method: page 8: Figure S14. Cholesterol efflux of peritoneal macrophage were assessed after treatment as indicated, n=5. […] Figure S15. Effects of Npx and IGF-1 mimetic peptide on inflammation and cholesterol efflux. (A) qRT-PCR analysis of TNFα and IL-1β in macrophage after indicated treatment, n=5. (B) Cholesterol efflux of peritoneal macrophage were assessed after treatment as indicated, n=5. […]

[5] = system: ABCA1 and ABCG1 in peritoneal macrophages; assay: ABCA1 and ABCG1 expression by western blot; assay type: cell-based, mouse; conditions: 10 nM overnight, versus GAPDH, n=5
Method: as §3

apoE-/- mice = assay: Inflammation and macrophage phenotype in vivo (aortic root immunofluorescence, serum ELISA, aorta qRT-PCR); set-up: species or system mouse
Source text: as §1

receptor of IGF-1 = conditions: earlier report of the same authors; cited from earlier work
Source text: Natural and recombinant human IGF-1 proteins (rhIGF-1) are limited in short half-lifes in biological systems and poor tissue retention. […] The C domain of […] in IGF-1 regulates its receptor binding and directly affects the biological activity of IGF-1. Nishida et al. reported that the C-domain of IGF-1 can promote the healing of corneal epithelial wounds. They screened a series of 12-amino acids of GST fusion protein and obtained mutants whose various ...

[6] = Rheometer mechanical properties of hydrogels; assay type: physicochemical; conditions: hydrogel 1.0 wt%
Method: We then used a rheometer to characterize the mechanical properties of the hydrogels. […] The storage modulus (G') of the four hydrogels was approximately an order of magnitude higher than their loss modulus (G''), which indicated the formation of true gels. ApoE^-/- mice were then subcutaneously (s.c.) injected with 100 μL of the different hydrogels or natural IGF-1 protein solution per week and simultaneously fed a high-fat diet for 16 weeks. Atherosclerotic lesion formation was assessed after 16 weeks.

[7] = TEM of nanofibers in hydrogels; assay type: physicochemical; conditions: hydrogel in PBS, 0.5 wt%
[8] = Transparency of hydrogels by UV-Vis spectroscopy; assay type: physicochemical; conditions: visible light range 380 nm-780 nm, hydrogel in PBS pH 7.4, 0.5 wt%
Source text: as §2

[9] = male apoE-/- mice, HFD 16 weeks, s.c. weekly, mean ± SD, n=15
[10] = 10 nM with ox-LDL 50 µg·mL^-1 overnight, qRT-PCR, versus ox-LDL-treated cells
[11] = peritoneal macrophages, LPS 100 ng·mL^-1 2 h then 10 nM overnight, immunofluorescent staining, versus control, n=5
[12] = double immunofluorescence staining with MOMA2, n=15

recombinant human Insulin-like Growth Factor-I Receptor (rhIGF-1R), sequence (P08069 31-1367): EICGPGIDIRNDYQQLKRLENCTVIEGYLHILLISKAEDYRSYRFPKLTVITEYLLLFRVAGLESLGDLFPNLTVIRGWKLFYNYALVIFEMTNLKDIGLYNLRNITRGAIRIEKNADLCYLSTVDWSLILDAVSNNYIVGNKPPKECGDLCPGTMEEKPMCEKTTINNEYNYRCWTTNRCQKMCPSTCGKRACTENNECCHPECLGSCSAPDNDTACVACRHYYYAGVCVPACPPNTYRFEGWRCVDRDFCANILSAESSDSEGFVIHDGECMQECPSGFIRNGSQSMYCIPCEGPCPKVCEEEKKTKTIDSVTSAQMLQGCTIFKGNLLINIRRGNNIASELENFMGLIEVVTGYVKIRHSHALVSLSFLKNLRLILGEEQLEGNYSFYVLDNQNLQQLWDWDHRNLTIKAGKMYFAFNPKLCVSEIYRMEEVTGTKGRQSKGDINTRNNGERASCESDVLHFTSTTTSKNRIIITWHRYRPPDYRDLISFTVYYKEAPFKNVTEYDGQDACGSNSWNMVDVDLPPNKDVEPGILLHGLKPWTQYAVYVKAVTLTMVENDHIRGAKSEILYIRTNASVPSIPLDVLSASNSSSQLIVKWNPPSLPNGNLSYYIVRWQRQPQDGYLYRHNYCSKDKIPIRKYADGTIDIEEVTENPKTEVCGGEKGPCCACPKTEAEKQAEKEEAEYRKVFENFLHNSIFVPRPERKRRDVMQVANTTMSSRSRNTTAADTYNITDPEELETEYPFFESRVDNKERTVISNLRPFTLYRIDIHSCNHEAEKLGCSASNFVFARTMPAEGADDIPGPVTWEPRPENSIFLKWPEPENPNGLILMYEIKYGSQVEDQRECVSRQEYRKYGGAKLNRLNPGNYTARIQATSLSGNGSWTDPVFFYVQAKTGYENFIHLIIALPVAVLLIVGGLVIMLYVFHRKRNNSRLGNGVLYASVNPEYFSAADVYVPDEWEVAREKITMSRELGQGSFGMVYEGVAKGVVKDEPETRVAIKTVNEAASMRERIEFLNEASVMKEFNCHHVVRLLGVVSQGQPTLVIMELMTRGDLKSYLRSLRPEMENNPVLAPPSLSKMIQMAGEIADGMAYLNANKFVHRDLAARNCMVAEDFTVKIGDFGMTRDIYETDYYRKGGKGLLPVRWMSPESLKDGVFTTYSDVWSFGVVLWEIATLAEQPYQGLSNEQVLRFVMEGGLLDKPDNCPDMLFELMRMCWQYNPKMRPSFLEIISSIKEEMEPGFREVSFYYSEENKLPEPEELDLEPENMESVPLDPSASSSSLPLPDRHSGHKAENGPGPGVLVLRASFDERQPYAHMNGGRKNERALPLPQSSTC

`COc1ccc2cc([C@H](C)C(=O)N[C@H](Cc3ccccc3)C(=O)N[C@H](Cc3ccccc3)C(=O)NCC(=O)N[C@@H](CO)C(=O)N[C@@H](CO)C(=O)N[C@@H](CO)C(=O)N[C@@H](CCCNC(=N)N)C(=O)O)ccc2c1` [Compound H1, Npx-^DF^DFGSSSR] (Naproxen-[dF][dF]GSSSR-OH) gave a BW ([1]; mouse, in vivo, sc, SD) of 26.49 ± 2.14 g.

Molecule `COc1ccc2cc([C@H](C)C(=O)N[C@@H](Cc3ccccc3)C(=O)N[C@@H](Cc3ccccc3)C(=O)NCC(=O)N[C@@H](CO)C(=O)N[C@@H](CO)C(=O)N[C@@H](CO)C(=O)N[C@@H](CCCNC(=N)N)C(=O)O)ccc2c1` [Compound H2, Npx-FFGSSSR] (Naproxen-FFGSSSR-OH) has a BW ([1]; mouse, in vivo, sc, SD) of 25.55 ± 2.31 g.

In the case of `N=C(N)NCCC[C@H](NC(=O)[C@H](CO)NC(=O)[C@H](CO)NC(=O)[C@H](CO)NC(=O)CNC(=O)[C@H](Cc1ccccc1)NC(=O)[C@H](Cc1ccccc1)NC(=O)Cc1ccc2ccccc2c1)C(=O)O` [Compound H3, Nap-FFGSSSR] ({Acetyl(2-naphthyl)}-FFGSSSR-OH), the Kd [2] is reported as 230 nM and the BW [1, 9] is reported as 26.79 ± 1.77 g.

In the case of `COc1ccc2cc([C@H](C)C(=O)O)ccc2c1` [Npx, naproxen, reference compound], the “LPS-induced inflammation, components compared (Figure S15A)” value (peritoneal macrophages; macrophage in presence of LPS, qRT-PCR of TNF and IL-1, n=5) is reported as “partly blocked LPS-induced inflammation”.

With “Insulin-like growth factor (IGF)-1 [IGF-1]” the “decrease in plaque size at the aortic root” value [3] was ~ 53%, the “reduction in lesion area, en face aorta” value [3] was ~ 42% and the “number of foam cells” value [4] was 22.0%. For the same molecule, the “α-SMA expression in VSMCs” value (HASMCs; 10 nM overnight, immunofluorescent staining, versus control) was “expressed more α-SMA”, the “CD68 expression in VSMCs” value (HASMCs; [10]) was “less CD68” and the “SM22α expression in VSMCs” value (HASMCs; [10]) was “more SM22α”. For the same molecule, the “Arg1 expression in macrophages in vitro” value (peritoneal macrophages; [11]) was “more Arg1”, the “CCR7 expression in macrophages in vitro” value (peritoneal macrophages; [11]) was “expressed less CCR7” and the “cholesterol efflux from peritoneal macrophage” value (peritoneal macrophage) was “more effective than Npx”. The “expression of ABCA1 and ABCG1 in macrophages” value [5] was “significantly enhanced expression”, the HDL-C [1, 9] was 2.35 ± 0.89 mM and the LDL-C [1, 9] was 4.08 ± 1.42 mM. For the same molecule, the “TG (triglyceride)” value [1, 9] was 0.51 ± 0.13 mM, the “Total-C (serum total cholesterol)” value [1, 9] was 15.47 ± 2.76 mM and the BW ([1]; mouse, in vivo, sc, SD) was 25.04 ± 1.83 g. For the same molecule, the “Arg1 expression in aortic root macrophages in vivo” value (apoE-/- mice; [12]) was “induced the expression of Arg1”, the “CCR7 expression in aortic root macrophages in vivo” value (apoE-/- mice; [12]) was “inhibited the expression of CCR7” and the “expression of proinflammatory cytokines in aortas” value (apoE-/- mice; qRT-PCR of TNF-α and IL-6, n=8) was “reduced the expression of these cytokines”.

In the case of “Nap-FFGGYGSSSRRAPQT [self-assembling peptide reported earlier by the authors]”, the “binding affinity to the receptor of IGF-1” value (receptor of IGF-1) is given as “high binding affinity”.

For “Nap-FFGSRSS [Compound H4, control without naproxen and with a scrambled tetrapeptide of SSSR]”, the “number of foam cells” value [4] was “almost no decrease”, the “storage modulus (G')” value [6] was 100 Pa and the “dissociated constant (KD) with rhIGF-1R” value [2] was “Non KD”. The “dissociated constant (KD) with rhIGF-1R” value ([2]; listed as Compound 4) was “no binding at all”, the “diameter of entangled nanofibers” value [7] was ~17.3 nm and the HDL-C [1, 9] was 2.34 ± 0.76 mM. The LDL-C [1, 9] was 4.45 ± 1.23 mM, the “TG (triglyceride)” value [1, 9] was 0.52 ± 0.08 mM and the “Total-C (serum total cholesterol)” value [1, 9] was 16.63 ± 2.05 mM. The BW ([1]; mouse, in vivo, sc, SD) was 26.81 ± 2.06 g and the “transparency (mean transmittance) of hydrogel” value [8] was 71.08%.
